From patent publication US6380263B1, “6-substituted pyrimidine 3-oxides for promoting pigmentation of the skin/hair” (Societe L'Oreal, priority 1996, dated 2002)

system: purified fungal tyrosinase (EC 1.14.18.1); assay: Modulation of tyrosinase activity (dopachrome formation from L-tyrosine, spectrophotometry at 475 nm); format: biochemical; conditions: 100 μl of 1 mM derivative solution (PBS/1% ethanol) in 1000 μl mixture; substrate L-tyrosine; 37° C.; at least 30 minutes
Experimental: In order to determine the activity of the pyrimidine derivatives substituted in position 6, the simple and rapid technique is employed that entails measurement by incubating an optionally purified tyrosinase and one of its substrates in a suitable medium in the presence of a test compound, and then comparing the measurements taken with the results of identical measurements taken during the incubation of optionally purified tyrosinase with one of its substrates in the absence of the test compound.
A purified tyrosinase was incubated in the presence of one of its substrates in a suitable medium, in the presence or absence of a pyrimidine 3-oxide derivative, substituted in position 6. The activity of the enzyme was evaluated by measuring the amount of a product of conversion of the substrate formed during the reaction. The result obtained in the presence of a derivative was compared with the result obtained in the absence of a derivative.
The substrate used was L-tyrosine (marketed by Sigma), a stock solution of which was prepared in phosphate-buffered saline (PBS) at a concentration of 0.5 mM.
The enzyme used was a purified fungal tyrosinase (EC 1.14.18.1) marketed by Sigma. A stock solution of this enzyme was prepared in PBS at a concentration of 5 mg/ml, which represents a concentration of about 19,500 international units of tyrosinase per milliliter.
The product of conversion of the tyrosine by tyrosinase, dopachrome, was measured by spectrophotometry at a wavelength of 475 nm using a Perkin Elmer type apparatus.
The derivative to be tested was prepared in solution in PBS containing 1% ethanol at a concentration of 1 mM.
The following reagents were mixed together in a spectrophotometer cell:
500 μl of tyrosine solution,
390 μl of phosphate buffer,
10 μl of fungal tyrosinase solution,
100 μl of solution of test derivative or of PBS/1% ethanol (control).
The mixture was then incubated at a temperature of 37° C. and the dopachrome formed was measured continuously for at least 30 minutes.
The results obtained are expressed as a % of activation of the tyrosinase activity relative to the value obtained with the control (in the absence of derivative).

Compound	Activation (% of activation of the tyrosinase activity relative to the control) [%]
CCCNc1cc(N2CCCCC2)nc(NCCC)[n+]1[O-] [2,4-bis-propylamino-6-piperidinopyrimidine 3-oxide]	57
Nc1nc(N2CCCCC2)cc(NCCO)[n+]1[O-] [2-amino-4-(2-hydroxyethylamino)-6-piperidinopyrimidine 3-oxide]	43
Nc1nc(N2CCCCC2)cc(NCc2ccccc2)[n+]1[O-] [2-amino-4-benzylamino-6-piperidinopyrimidine 3-oxide]	45
CCCCCCNc1cc(N2CCCCC2)nc(N)[n+]1[O-] [2-amino-4-hexylamino-6-piperidinopyrimidine 3-oxide]	47
CNc1cc(N2CCCCC2)nc(N)[n+]1[O-] [2-amino-4-methylamino-6-piperidinopyrimidine 3-oxide]	50
Nc1cc(N2CCCCC2)nc(N)[n+]1[O-] [Minoxidil, 2,4-diamino-6-piperidinopyrimidine 3-oxide, reference compound]	41

Now from value to compound:

Activation (% of activation of the tyrosinase activity relative to the control) [%]	Compound
60	CCNc1cc(N(C)C)nc(NCC)[n+]1[O-] [2,4-bis-ethylamino-6-dimethylaminopyrimidine 3-oxide]
61	CNc1cc(N(C)C)nc(NC)[n+]1[O-] [2,4-bis-methylamino-6-dimethylaminopyrimidine 3-oxide]
55	CCCNc1cc(N(C)C)nc(NCCC)[n+]1[O-] [2,4-bis-propylamino-6-dimethylaminopyrimidine 3-oxide]
51	CCCCNc1cc(N(C)C)nc(N)[n+]1[O-] [2-amino-4-butylamino-6-dimethylaminopyrimidine 3-oxide]
46	CC(C)Nc1cc(N(C)C)nc(N)[n+]1[O-] [2-amino-4-isopropylamino-6-dimethylaminopyrimidine 3-oxide]
50	CCCNc1cc(N(C)C)nc(N)[n+]1[O-] [2-amino-4-propylamino-6-dimethylaminopyrimidine 3-oxide]
46	CCCNc1cc(N2CCCCC2)nc(N)[n+]1[O-] [2-amino-4-propylamino-6-piperidinopyrimidine 3-oxide]

system: hair pigmentation; assay: not given; conditions: bald men treated with this compound; cited from earlier work

Compound	effect on hair pigmentation
Nc1cc(N2CCCCC2)nc(N)[n+]1[O-] [Minoxidil, 2,4-diamino-6-piperidinopyrimidine 3-oxide, reference compound]	stimulatory effect on hair pigmentation
